What was measured:
[1] = target: T1, Neuraminidase (Influenza A virus, UniProt B4URF0); design: species or system Influenza A virus (A/California/04/2009(H1N1))
[2] = target: T1, Neuraminidase; design: species or system A/Babol/36/2005(H3N2)
[3] = target: T1, Neuraminidase
[4] = target: T1, Neuraminidase; design: species or system A/Anhui/1/2013(H7N9)
[5] = in vitro; conditions: chicken, chicken embryo fibroblasts
[6] = in vitro; conditions: dog, MDCK cells
[7] = system: Influenza A virus; assay: microbe, parasite or virus in culture; conditions: A/Puerto Rico/8/1934(H1N1), MDCK, 48 h
[8] = system: Influenza A virus; assay: microbe, parasite or virus in culture; conditions: MDCK, 48 h
[9] = system: Mus musculus; assay: Acute toxicity in Kunming mouse assessed as mortality at 0.5 to 1 g/kg, ig; assay type: organism-based; conditions: in vivo, po
[10] = system: Mus musculus; assay: Acute toxicity in Kunming mouse assessed as change in body weight at 0.5 to 1 g/kg, ig; assay type: organism-based; conditions: in vivo, po
[11] = Drug level in human liver microsomes treated with Ethyl(3R,4R,5S)-4-acetamido-5-((4-(diethylamino)benzyl)-amino)-3-(pentan-3-yloxy)cyclohex-1-ene-1-carboxylate assessed as compound formation in presence of NADPH by LC/MS/MS analysis; assay type: ADME, microsome
[12] = system: Influenza A virus
[13] = human, plasma, 2 h, 100 µM
[14] = in vitro; conditions: human, liver microsomes
[15] = in vitro; conditions: human, liver microsomes; remark: listed apart in the source
[16] = in vitro; conditions: human, liver
[17] = in vitro; conditions: human, liver microsomes; remark: listed apart in the source
[18] = in vitro; conditions: human, liver microsomes; remark: listed apart in the source
[19] = in vitro; conditions: human, plasma
[20] = in vitro; conditions: human, plasma; remark: listed apart in the source
[21] = in vitro; conditions: human, plasma; remark: listed apart in the source
[22] = in vitro; conditions: human, plasma; remark: listed apart in the source
[23] = Drug metabolism in human liver microsomes assessed as (3R,4R,5S)-4-Acetamido-5-((4(diethylamino)benzyl)amino)-3-(pentan-3-yloxy)cyclohex-1-ene-1-carboxylic acid formation in presence of NADPH by LC/MS/MS analysis; assay type: ADME, microsome
[24] = target: T1, Neuraminidase; assay: Inhibition of Influenza A virus SN33 (H1N1) neuraminidase activity using fluorogenic substrate MU-NANA pre-incubated for 30 mins before fluorogenic substrate addition and measured after 1 hr by spectrofluorometry
[25] = target: Neuraminidase (Influenza A virus (A/Memphis/1/1971(H3N2)), UniProt P03471); assay: Inhibition of Influenza A virus Taiwan/3446/2002 (H3N2) neuraminidase activity using fluorogenic substrate MU-NANA pre-incubated for 30 mins before fluorogenic substrate addition and measured after 1 hr by spectrofluorometry
[26] = target: T1, Neuraminidase; assay: Inhibition of Influenza A virus (H1N1) neuraminidase activity
[27] = target: Neuraminidase (Influenza A virus (A/Memphis/1/1971(H3N2)), UniProt P03471); assay: Inhibition of Influenza A virus (H3N2) neuraminidase activity
[28] = target: T1, Neuraminidase; assay: Inhibition of Influenza A virus (A/Paris/2590/2009(H1N1)) neuraminidase activity by fluorometric assay
[29] = target: Neuraminidase (Influenza A virus (A/Memphis/1/1971(H3N2)), UniProt P03471); assay: Inhibition of Influenza A virus (A/Paris/908/97 (H3N2)) neuraminidase activity by fluorometric assay
[30] = in vitro; conditions: human, plasma; remark: listed apart in the source

Chain of Neuraminidase (Influenza A virus (A/Memphis/1/1971(H3N2)), UniProt P03471) (P03471 whole entry): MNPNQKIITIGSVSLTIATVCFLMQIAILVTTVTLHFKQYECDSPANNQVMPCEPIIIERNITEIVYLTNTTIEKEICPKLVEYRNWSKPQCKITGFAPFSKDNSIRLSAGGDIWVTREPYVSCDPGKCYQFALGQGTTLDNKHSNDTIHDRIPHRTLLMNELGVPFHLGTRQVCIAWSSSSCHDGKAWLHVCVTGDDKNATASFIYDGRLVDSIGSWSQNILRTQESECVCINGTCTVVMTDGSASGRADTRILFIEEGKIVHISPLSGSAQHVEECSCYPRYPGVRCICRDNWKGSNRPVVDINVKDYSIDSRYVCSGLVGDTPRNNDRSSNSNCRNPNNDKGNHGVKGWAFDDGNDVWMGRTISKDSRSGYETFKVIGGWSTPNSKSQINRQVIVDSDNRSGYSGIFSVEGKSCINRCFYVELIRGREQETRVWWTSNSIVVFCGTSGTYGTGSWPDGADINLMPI
T1 sequence (B4URF0 whole entry): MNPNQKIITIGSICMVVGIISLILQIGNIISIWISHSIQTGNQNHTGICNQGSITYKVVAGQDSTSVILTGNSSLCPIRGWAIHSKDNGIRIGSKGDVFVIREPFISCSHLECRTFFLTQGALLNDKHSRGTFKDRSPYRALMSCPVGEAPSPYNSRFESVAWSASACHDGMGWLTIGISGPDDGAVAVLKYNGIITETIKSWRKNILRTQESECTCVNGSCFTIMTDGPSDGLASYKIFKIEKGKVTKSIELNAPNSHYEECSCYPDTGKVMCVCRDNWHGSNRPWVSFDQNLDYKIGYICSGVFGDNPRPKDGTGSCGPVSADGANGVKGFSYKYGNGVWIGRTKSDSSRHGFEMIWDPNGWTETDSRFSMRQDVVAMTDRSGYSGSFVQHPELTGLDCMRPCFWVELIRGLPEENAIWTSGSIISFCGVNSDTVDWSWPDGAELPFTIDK

SMILES	IC50 [1] [µM]	IC50 [2] [µM]	IC50 [3] [µM]	IC50 [4] [µM]	CC50 at 48 h [5] [µM]	CC50 at 48 h [6] [µM]	EC50 [7] [µM]	EC50 [8] [µM]	other results
CCC(CC)O[C@@H]1C=C(C(=O)O)C[C@H](NCc2ccc(-n3cccn3)cc2)[C@H]1NC(C)=O	0.297	0.869	0.593	9.12	> 200				
CC(=O)N[C@H]1[C@H]([C@H](O)[C@H](O)CO)OC(C(=O)O)=C[C@@H]1NC(=N)N [ZANAMIVIR]					> 200	> 250	0.05	0.27	
CCC(CC)O[C@@H]1C=C(C(=O)O)C[C@H](NCc2ccc(N(CC)c3ccccc3)cc2)[C@H]1NC(C)=O	0.698	0.474	0.56	2.59	> 200				
CCC(CC)O[C@@H]1C=C(C(=O)O)C[C@H](NCc2ccc(N(CC)CC)cc2)[C@H]1NC(C)=O	0.00055	0.00105	0.00035	0.00179	> 200	> 250	0.07	1.7	Activity [9]: Non-Toxic; Activity [10]: Non-Toxic; Drug metabolism [11]: Metabolite_Detected; EC50 [12]: 0.61 µM; Stability [13]: 120.7%; half-life at 10 min [14]: > 145 min; microsomal CLint at 10 min [15]: < 9.6 µL/min/mg; CLint scaled at 10 min [16]: < 8.6 mL/min/kg; remaining at 1 h [17]: 82.7%; remaining at 1 h [18]: 95.4%; remaining at 0 min, 100 µM [19]: 100%; remaining at 10 min, 100 µM [20]: 118%; remaining at 0.5 h, 100 µM [21]: 120%; remaining at 1 h, 100 µM [22]: 120%
CCOC(=O)C1=C[C@@H](OC(CC)CC)[C@H](NC(C)=O)[C@@H](NCc2ccc(N(CC)CC)cc2)C1									Drug metabolism [23]: Metabolite_Detected; half-life at 10 min [14]: 8.4 min; microsomal CLint at 10 min [15]: 165 µL/min/mg; CLint scaled at 10 min [16]: 149 mL/min/kg; remaining at 1 h [17]: 0.6%; remaining at 1 h [18]: 87.1%
CCC(CC)O[C@@H]1C=C(C(=O)O)C[C@H](NCc2ccc(N(C)C)cc2)[C@H]1NC(C)=O	0.00409	0.00411	0.00574	0.00841	> 200				
CC(=O)N[C@H]1[C@H]([C@@H](O)[C@@H](O)CO)OC(C(=O)O)=C[C@@H]1NC(=N)NC(=O)CSc1cccc2ccccc12									IC50 [24]: 0.021 µM; IC50 [25]: 0.025 µM
CCC(CC)O[C@@H]1C=C(C(=O)O)[C@H](n2cc(C(O)CC)nn2)[C@H](NC(=N)N)[C@H]1NC(C)=O (stereo partly drawn)									Ki [26]: > 0.1 µM; Ki [27]: 0.004 µM
CCC(CC)O[C@@H]1C=C(C(=O)O)C[C@H](NCc2ccc(Nc3ccccc3)cc2)[C@H]1NC(C)=O	0.0667	0.0311	0.0274	0.0942	> 200				
CCC(CC)O[C@@H]1C=C(C(=O)O)C[C@H](N)[C@H]1NC(C)=O [OSELTAMIVIR CARBOXYLATE]					> 200	> 250	0.04	0.9	
CCC(CC)O[C@@H]1C=C(C(=O)O)C[C@H](NCc2ccc(N3CCCC3)cc2)[C@H]1NC(C)=O	0.00231	0.00181	0.00213	0.00651	> 200	> 250	0.22	2.35	
CC(=O)N[C@H]1[C@H]([C@H](O)[C@H](O)CO)OC(C(=O)O)=C(C/C=C/c2ccc(C)cc2)[C@@H]1O									Ki [28]: 1.7 µM; Ki [29]: 219 µM
CC(C)[N+](C)(CCOC(=O)C1c2ccccc2Oc2ccccc21)C(C)C [PROPANTHELINE BROMIDE]									remaining at 0 min, 100 µM [19]: 100%; remaining at 10 min, 100 µM [20]: 73.4%; remaining at 0.5 h, 100 µM [21]: 44.6%; remaining at 1 h, 100 µM [22]: 16.8%; remaining at 2 h, 100 µM [30]: 1.8%
CCC(CC)O[C@@H]1C=C(C(=O)O)C[C@H](NCc2ccc(N3CCSCC3)cc2)[C@H]1NC(C)=O	0.0484	0.0626	0.0742	0.156	> 200	> 250	4.4	19	
CCC(CC)O[C@@H]1C=C(C(=O)O)C[C@H](NCc2ccc(N3CCCCC3)cc2)[C@H]1NC(C)=O	0.0186	0.0171	0.0207	0.0405	> 200				
CCC(CC)O[C@@H]1C=C(C(=O)O)C[C@H](NCc2ccc(-c3cccs3)cc2)[C@H]1NC(C)=O	0.0213	0.354			> 200				
CCC(CC)O[C@@H]1C=C(C(=O)O)C[C@H](NCc2ccc(-n3cccc3)cc2)[C@H]1NC(C)=O	0.0593	0.327	0.504	1.82	> 200	> 250	0.69	29	
CCC(CC)O[C@@H]1C=C(C(=O)O)C[C@H](NCc2ccc(N(C)c3ccccc3)cc2)[C@H]1NC(C)=O	0.0298	0.00565	0.00229	0.0114	> 200	> 250	1.95	25.6	
CCC(CC)O[C@@H]1C=C(C(=O)O)C[C@H](NCc2ccc(NC(C)=O)cc2)[C@H]1NC(C)=O					> 200				
O=C(O)Cc1ccccc1Nc1c(Cl)cccc1Cl [DICLOFENAC]									half-life at 10 min [14]: 12.3 min; microsomal CLint at 10 min [15]: 112 µL/min/mg; CLint scaled at 10 min [16]: 101 mL/min/kg
C[C@]12CC[C@H]3[C@@H](CCC4=CC(=O)CC[C@@]43C)[C@@H]1CC[C@@H]2O [TESTOSTERONE]									half-life at 10 min [14]: 26.6 min; microsomal CLint at 10 min [15]: 52.1 µL/min/mg; CLint scaled at 10 min [16]: 46.9 mL/min/kg
CCC(CC)O[C@@H]1C=C(C(=O)O)C[C@H](NCCCNc2cccc(Cl)c2C)[C@H]1NC(C)=O									IC50 [26]: 0.00059 µM; IC50 [27]: 0.031 µM
CCC(CC)O[C@@H]1C=C(C(=O)O)[C@H](n2cc(C(O)CC)nn2)[C@H](N)[C@H]1NC(C)=O (stereo partly drawn)									Ki [26]: > 0.1 µM; Ki [27]: 0.02 µM

Source: ChEMBL document CHEMBL4145638 (J Med Chem, 2018)
